Data published in the supplement of paper PMC10307832.

Key:
Experiment in all cases: relative viability (nuclei count vs DMSO), 5 days (fraction); higher = more cells survive
[1] = compound: C1=CC=C2C(=C1)C=CC(=C2SSC3=C(C=CC4=CC=CC=C43)O)O [IPA-3] + N=C(N)NC(=N)NCCc1ccccc1 [Phenformin] (partner 250 µM)
How it was run: (§1)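 Relative viability equals treated-well nuclei counts divided by vehicle-well nuclei counts. Counts came from 4× images of lung cancer cell lines grown in 1536-well plates for 5 days after pin-tool dosing on the day after seeding. Dosing used one drug alone or a fixed anchor-drug dose plus five library-drug doses (not always all listed) in √10 steps, and values are medians of duplicate plates.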

[2] = compound: Cc1ccc(-n2nc(C(C)(C)C)cc2NC(=O)Nc2ccc(OCCN3CCOCC3)c3ccccc23)cc1 [Doramapimod] + C[C@@H](Oc1cc(-c2cnn(C3CCNCC3)c2)cnc1N)c1c(Cl)ccc(F)c1Cl [Crizotinib] (partner 1 µM)
How it was run: as §1

[3] = compound: Cn1c(Nc2ccc(C(F)(F)F)cc2)nc2cc(Oc3ccnc(-c4ncc(C(F)(F)F)[nH]4)c3)ccc21 [RAF265] + CS(=O)(=O)CCNCc1ccc(-c2ccc3ncnc(Nc4ccc(OCc5cccc(F)c5)c(Cl)c4)c3c2)o1 [Lapatinib] (partner 2 µM)
How it was run: as §1

[4] = compound: Cc1ccc(-n2nc(C(C)(C)C)cc2NC(=O)Nc2ccc(OCCN3CCOCC3)c3ccccc23)cc1 [Doramapimod] + CCNC(=O)c1noc(-c2cc(C(C)C)c(O)cc2O)c1-c1ccc(CN2CCOCC2)cc1 [Luminespib] (partner 0.01 µM)
How it was run: as §1

| Cell Line | relative viability ([1]; first compound 0.2 µM) | relative viability ([1]; first compound 0.6325 µM) | relative viability ([1]; first compound 2 µM) | relative viability ([1]; first compound 6.325 µM) | relative viability ([1]; first compound 20 µM) | relative viability ([2]; first compound 0.02 µM) | relative viability ([2]; first compound 0.06325 µM) | relative viability ([2]; first compound 0.2 µM) | relative viability ([2]; first compound 0.6325 µM) | relative viability ([2]; first compound 2 µM) | relative viability ([3]; first compound 0.01 µM) | relative viability ([3]; first compound 0.03162 µM) | relative viability ([3]; first compound 0.1 µM) | relative viability ([3]; first compound 0.3162 µM) | relative viability ([3]; first compound 1 µM) | relative viability ([4]; first compound 0.02 µM) | relative viability ([4]; first compound 0.06325 µM) | relative viability ([4]; first compound 0.2 µM) | relative viability ([4]; first compound 0.6325 µM) | relative viability ([4]; first compound 2 µM) |
| --- | --- | --- | --- | --- | --- | --- | --- | --- | --- | --- | --- | --- | --- | --- | --- | --- | --- | --- | --- | --- |
| NCI-H23 | 0.819 | 0.781 | 0.855 | 0.773 | 0.734 | 0.685 | 0.435 | 0.488 | 0.539 | 0.595 | 1.2 | 0.87 | 0.75 | 0.545 | 0.409 | 0.23 | 0.204 | 0.218 | 0.209 | 0.221 |
| NCI-H322M | 0.821 | 0.749 | 0.835 | 0.89 | 0.96 | 0.899 | 0.949 | 1.02 | 1.02 | 0.924 | 0.579 | 0.529 | 0.481 | 0.342 | 0.258 | 0.661 | 0.914 | 0.831 | 0.946 | 1.02 |
| NCI-H358 | 0.433 | 0.355 | 0.306 | 0.359 | 0.278 | 0.531 | 0.614 | 0.552 | 0.702 | 0.509 | 0.491 | 0.524 | 0.336 | 0.434 | 0.341 | 0.276 | 0.424 | 0.516 | 0.38 | 0.208 |
| NCI-H460 | 0.835 | 0.501 | 0.495 | 0.448 | 0.446 | 0.807 | 0.806 | 0.986 | 0.846 | 0.794 | 1.01 | 0.934 | 0.853 | – | 0.646 | 0.032 | 0.0205 | 0.0311 | 0.0341 | 0.0277 |
| NCI-H520 | 0.817 | 0.63 | 0.369 | 0.512 | 0.712 | 0.614 | 0.767 | 0.709 | 0.803 | 0.52 | 0.894 | 0.873 | 0.776 | 0.694 | 0.498 | 0.195 | 0.212 | 0.24 | 0.206 | 0.232 |
| NCI-H596 | 0.906 | 0.829 | 0.668 | 0.817 | 0.787 | 0.95 | 0.95 | 1.02 | 1.01 | 1 | 1.09 | 1.09 | 1.11 | 0.897 | 0.743 | 0.927 | 1 | 1 | 0.994 | 0.842 |
| NCI-H647 | 0.8 | 0.482 | 0.48 | 0.371 | 0.107 | 1.1 | 1.03 | 0.992 | 0.96 | 0.833 | 1.19 | 0.937 | 0.828 | 0.711 | 0.809 | 0.189 | 0.224 | 0.151 | 0.347 | 0.154 |
| NCI-H650 | 0.492 | 0.511 | 0.457 | 0.463 | 0.451 | 0.77 | 0.661 | 0.826 | 0.783 | 0.668 | 0.959 | 0.849 | 0.922 | 0.602 | 0.328 | 0.869 | 0.83 | 0.827 | 0.853 | 0.713 |
| NCI-H661 | 0.31 | 0.266 | 0.293 | 0.259 | 0.272 | 1.15 | 1.07 | 1 | 0.964 | 1.03 | 0.539 | 0.466 | 0.532 | 0.442 | 0.308 | 0.99 | 0.917 | 0.986 | 0.914 | 0.909 |
| NCI-H727 | 0.591 | 0.556 | 0.641 | 0.498 | 0.504 | 0.973 | 1.06 | 0.862 | 0.643 | 0.759 | 0.915 | 0.736 | 0.963 | 1.1 | 0.371 | 0.363 | 0.312 | 0.342 | 0.306 | 0.225 |
| NCI-H838 | 0.857 | 0.576 | 0.524 | 0.517 | 0.666 | 0.847 | 0.807 | 0.872 | 1.01 | 0.799 | 1.02 | 0.927 | 0.972 | 0.971 | 0.885 | 0.406 | 0.372 | 0.245 | 0.347 | 0.268 |
| NCI-H1355 | 0.471 | 0.448 | 0.476 | 0.44 | 0.482 | 0.981 | 1.08 | 1.11 | 1.04 | 1.03 | 1.07 | 0.969 | 0.842 | 0.85 | 0.596 | 0.721 | 0.689 | 0.706 | 0.723 | 0.648 |
| NCI-H1437 | 0.41 | 0.294 | 0.328 | 0.394 | 0.304 | 0.897 | 0.943 | 0.868 | 1 | 0.915 | 0.897 | 0.776 | 0.77 | 0.784 | 0.78 | 1.2 | 1.21 | 1.16 | 1.15 | 1.2 |
| NCI-H1563 | 0.703 | 0.644 | 0.655 | 0.727 | 0.735 | 0.977 | 0.917 | 0.859 | 0.893 | 0.612 | 1.01 | 0.885 | 0.992 | 0.815 | 0.737 | 0.449 | 0.548 | 0.535 | 0.48 | 0.481 |
| NCI-H1650 | 0.564 | 0.346 | 0.424 | 0.512 | 0.364 | 0.969 | 1.02 | 1.13 | 1.04 | 1.02 | 0.844 | 0.749 | 0.874 | 0.325 | 0.637 | 0.186 | 0.171 | 0.195 | 0.176 | 0.209 |
| NCI-H1651 | 0.341 | 0.317 | 0.364 | 0.339 | 0.31 | 0.847 | 0.871 | 0.875 | 0.89 | 0.851 | 0.931 | 0.797 | 0.864 | 0.669 | 0.644 | 0.76 | 0.863 | 0.87 | 0.93 | 0.758 |
